Reference: US4244869A, “Benzodiazepine derivatives and process of making them” (Kali-Chemie A.G., priority 1972, dated 1981)

Key:
[1] = Acute seven-day toxicity (LD50), single oral application; parameters: species or system mice (white NMRI); conditions: mouse, in vivo, p.o., mice
Method: The acute seven-day toxicity is determined by a single application per os and intraperitoneally to white fasting NMRI mice. The computation of the LD50 values was effected via EDV by a probit analysis (Cavalli-Sforza, publisher Gustav Fischer, 1964, Grundbegriffe der Biometrie).

mice [2] = assay: Test de la traction (musculotropic properties); format: in vivo; conditions: for Quotient 2: ED50 test de la traction / ED50 isolation aggressiveness; for ED50: Mus musculus, po, 2 h, p.o., after 120 minutes, mice
Method: (4) Musculotropic properties
This test is called the "test de la traction". In this test the compounds were administered to the mice per os. After 120 minutes the mice were suspended with their front paws from a thin horizontally extending wire. […] These tests have the purpose to check the effects on the muscle tone by the compounds.
The ED50 values was effected via EDV by a probit analysis.

mice [3] = assay: Prolongation of hexobarbital induced sleep (C.N.S. quieting properties); format: in vivo; conditions: for Quotient 1: ED50 elongation of hexobarbital induced sleep / ED50 isolation aggressiveness; for ED50: Mus musculus, po, 0.5 h, p.o., 30 min before hexobarbital 64 mg/kg i.v., prolongation by a factor of 4 in half of the mice
Method: (5) C.N.S. quieting properties
(Prolongation of hexobarbital induced sleep)
The test substance was applied to the mice per os. The animals after 30 minutes received additionally an intravenous injection of 64 mg/kg of hexobarbital. […] The duration of this lateral position was then compared with the control group which had been treated only with hexobarbital.
As ED50 that dose was defined at which with one-half of the animals a prolongation of the lateral position occurred by a factor of 4 as against the control group (G. M. Everett, Nature 177, 1238 [1956]).

mice [4] = assay: Maximum electroshock (anticonvulsive); format: in vivo; conditions: Mus musculus, po, 1 h, orally, 60 min before electroshock
Method: (§1) (2) Anti-convulsive properties
The test substances were applied orally to the animals. Sixty minutes after application electrodes were fastened to the ears of the mice and an electric shock was effected. The dose was then determined at which in half of the animals tonic contractions in the rear extremities were prevented. The computation of the ED50 was again effected by means of the above-noted probit analysis (modified according to J. Swinyard, J. Pharmacol. exptl. Therap.-106, 93 [1952]).
(§2) The results obtained by these tests show the anticonvulsive activity of the test substances. According to the medical literature this is an important criteria for the appraising of the clinical effectiveness of tranquilizers.

mice [5] = assay: Pentetrazol induced convulsions (anticonvulsive); format: in vivo; conditions: Mus musculus, po, 1 h, p.o., 60 min before pentetrazol 100 mg/kg s.c., read-out: Pentetrazol spasm ED50
Method: as §1
(a) Pentetrazol induced convulsions
The compounds were tested after per oral administration to groups of six mice each. Sixty minutes after application of the test compounds pentetrazol was injected subcutaneously at a dosage of 100 mg/kg. The appearance of clonic and tonic convulsions was checked through a total observation time of 45 minutes. The protective effects of the compounds against convulsions were determined in control tests with comparison compounds. The effective dose ED50 was computed from the probit logarithmic dosage curves (modified according to J. E. Blum et al. Arzneimittel-Forsch. 23, 377 [1973]).
as §2

mice [6] = assay: Isolation aggressiveness (anxiety relieving and anti-aggressive activity); format: in vivo; conditions: Mus musculus, po, 0.5 h; orally, after 30 minutes, isolated mice
Method: (3) Anxiety relieving and anti-aggressive activity. Inhibition of the aggressiveness of a mouse caused by isolation.
Before the test the mice were kept for four weeks in strict isolation in single cages. After that time the mice which had been kept in isolation spontaneously attacked other mice which were introduced then and which had not been isolated. The test substances were administered to the isolated mice orally.
The results shown in these tests permit useful conclusions regarding the anxiety, stress and tension-relieving properties of the compound.

SMILES | LD50 at 168 h [1] [mg/kg] | Quotient 2 (mice [2]) | ED50 (mice [2]) [mg/kg] | Quotient 1 (mice [3]) | ED50 (mice [3]) [mg/kg] | ED50 (mice [4]) [mg/kg] | ED50 (mice [5]) [mg/kg] | ED50 (mice [6]) [mg/kg]
COCC1CN=C(c2ccccc2Cl)c2cc(Br)ccc2N1C (stereo not drawn) [Compound 1, 7-bromo-1-methyl-2-methoxymethyl-5-(2'-chlorophenyl)-1H-2,3-dihydro-1,4-benzodiazepin] | 1580 | 28.1 | 87 | 4.9 | 15.2 | 3 | 0.9 | 3.1
CCOCC1CN=C(c2ccccc2Cl)c2cc(Br)ccc2N1C (stereo not drawn) [Compound 2, 7-bromo-1-methyl-2-ethoxymethyl-5-(2'-chlorophenyl)-1H-2,3-dihydro-1,4-benzodiazepin] | > 1470 | 8.5 | 34.9 | 10.2 | 41.9 | 24.5 | 2.2 | 4.1
COCC1CN=C(c2ccccc2F)c2cc(Br)ccc2N1C (stereo not drawn) [Compound 3, 7-bromo-1-methyl-2-methoxymethyl-5-(2'-fluorophenyl)-1H-2,3-dihydro-1,4-benzodiazepin] | 1580 | 5.4 | 58.3 | 0.9 | 10.6 | 5 | 0.5 | 10.7
COCC1CN=C(c2ccccc2Cl)c2cc(Cl)ccc2N1C (stereo not drawn) [Standard I, 7-chloro-1-methyl-2-methoxymethyl-5-(2'-chlorophenyl)-1H-2,3-dihydro-1,4-benzodiazepin, reference compound] | 1780 | 2.4 | 163 | 0.17 | 11.7 | 26 | 2 | 68
CN1C(=O)CN=C(c2ccccc2)c2cc(Cl)ccc21 [Standard II, 7-chloro-1-methyl-5-phenyl-1,3-dihydro-2H-1,4-benzodiazepin-2-one, reference compound] |  | 1.2 | 4.2 | 0.42 | 1.5 | 9 | 0.5 | 3.6
